Biological target: Induced myeloid leukemia cell differentiation protein Mcl-1 (Homo sapiens) (UniProt Q07820)
Assay: Mcl-1 Noxa peptide disruption concentration-response – biochemical, TR-FRET, dose response (AID 1417)
Settings: Mcl-1/Noxa peptide interaction, cell-free TR-FRET (terbium/rhodamine), 2 h; measured here: absolute IC50

Sequence of Induced myeloid leukemia cell differentiation protein Mcl-1 (Homo sapiens) (Q07820 whole entry, looked up): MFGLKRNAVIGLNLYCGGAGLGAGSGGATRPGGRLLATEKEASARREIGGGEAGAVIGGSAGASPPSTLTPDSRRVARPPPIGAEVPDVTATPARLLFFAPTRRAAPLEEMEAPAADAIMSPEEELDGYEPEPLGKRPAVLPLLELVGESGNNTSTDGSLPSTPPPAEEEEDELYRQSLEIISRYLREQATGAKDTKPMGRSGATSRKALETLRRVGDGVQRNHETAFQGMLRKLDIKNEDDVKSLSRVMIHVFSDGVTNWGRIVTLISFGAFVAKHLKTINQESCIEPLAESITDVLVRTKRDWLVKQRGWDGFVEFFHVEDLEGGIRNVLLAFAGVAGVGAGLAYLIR

First: Cc1ccc(/C=C2\SC(=S)N(Cc3ccccc3)C2=O)o1
Second: CC(/C=C1\SC(=S)N(NS(=O)(=O)c2ccccc2)C1=O)=C\c1ccccc1
The IC50 of the first is higher: > 54 µM for the first, 17.9 µM for the second.

Going from Nc1cc2nc[nH]c2cc1N to Nc1ccc(-c2nc3cc([N+](=O)[O-])ccc3o2)cc1, the IC50 falls from 52.8 µM to 7.16 µM (7.4-fold).

Going from Nc1c(C(=O)NCC2CCCO2)sc2nc3c(c(-c4ccco4)c12)CC/C3=C\c1ccco1 (stereo not drawn) to Nc1c(C(=O)NCc2ccco2)sc2nc3c(cc12)C(=O)CCC3, the IC50 rises from 0.8 µM to 2.34 µM (2.9-fold). The first is the more potent here.

Going from O=C(Nc1ccc(N2CCCC2)cc1)c1ccc2ccccc2c1 to Cc1ccc(C(=O)Nc2ccc(N3CCCC3)cc2)c(C)c1, the IC50 rises from 4.97 µM to > 54 µM.

Going from COc1cccc(C(Nc2ccccn2)c2oc(CO)cc(=O)c2O)c1 (stereo not drawn) to CCOc1ccc(C(Nc2cccnc2)c2cc(Cl)c3cccnc3c2O)cc1 (stereo not drawn), the IC50 rises from < 0.4 µM to 3.25 µM.

Going from CCOC(=O)c1sc(NC(=O)Nc2ccc(Cl)cc2)cc1C to CN(C)c1ccc(NC(=O)c2ccc([N+](=O)[O-])cc2Cl)cc1, the IC50 rises from 4.11 µM to > 54 µM. The first is the more potent here.

CN=c1scc(-c2cccs2)n1/N=C/c1ccc(O)c(O)c1O and CN(C)c1ccc(N=c2sc3ccccc3n2C)cc1 cannot be ordered by IC50: < 0.4 µM for the first, < 0.4 µM for the second.

Going from CCc1nc(Nc2ccc(N3CCN(C(C)=O)CC3)cc2)c2oc3ccccc3c2n1 to COc1ccc(N2CCC(CNC(=O)Nc3ccc(OC)cc3OC)C2)cc1 (stereo not drawn), the IC50 falls from > 54 µM to 1.24 µM.

First: O=C(O)CSc1cc(C(=O)c2ccccc2O)cn2c(=O)c3c(-c4ccccc4)csc3nc12
Second: CN(C)c1ccc(NC(=O)CN2C(=O)CN=C(c3ccccc3)c3cc(Cl)ccc32)cc1
The IC50 of the first is lower: 5.71 µM for the first, > 54 µM for the second. The first is the more potent here.

First: O=S(=O)(Cc1cc(Cl)nc(-c2ccncc2)n1)c1ccccc1
Second: O=C(Nc1ccc(S(=O)(=O)Nc2nccs2)cc1)c1cc(-c2ccncc2)nc2ccccc12
The IC50 of the first is higher: 24.8 µM for the first, < 0.4 µM for the second. The second is the more potent here.

Compared with COc1ccc(-c2csc(NC(=O)CSc3nc(C)nc4sc(C(=O)O)c(C)c34)n2)cc1, Cc1csc(NC(=O)c2cc(-c3ccco3)nc3ccccc23)n1 is 2.8-fold lower in IC50: 8.23 µM for the first, 2.91 µM for the second. The second is the more potent here.

First: Cc1cc(C(F)F)n2nc(C(=O)Nc3sc4c(c3C(N)=O)CCC4)nc2n1
Second: COc1cc(NS(=O)(=O)c2ccc(NC(=S)NC(=O)c3sc4cc(F)ccc4c3Cl)cc2)nc(OC)n1
The IC50 of the first is lower: 11.4 µM for the first, > 54 µM for the second. The first is the more potent here.

Compared with CCOC(=O)/C=C(\C)Sc1cc(O)c2ccccc2c1O, CCN(c1ccc(NC(=O)COC(=O)/C=C/c2cccs2)cc1)C(C)C is higher in IC50: < 0.4 µM for the first, 3.81 µM for the second.

First: COc1ccc(OC)c2c1C(=O)C(Cl)=C(Cl)C2=O
Second: COc1ccc(-c2csc(/C(C#N)=C\c3ccc(O)c([N+](=O)[O-])c3)n2)cc1OC
The IC50 of the first is lower: < 0.4 µM for the first, 4.75 µM for the second. The first is the more potent here.

Going from O=C(O)c1ccccc1NS(=O)(=O)c1ccc(NNC(=S)Nc2ccc(OC(F)F)cc2)c([N+](=O)[O-])c1 to O=C1SC(SCc2ccccc2Cl)=N/C1=C\c1ccc(C(=O)O)cc1, the IC50 rises from < 0.4 µM to 4.67 µM. The first is the more potent here.

Compared with CC(C)Cn1c(N)c(C(=O)COC(=O)c2cc(-c3ccco3)nc3ccccc23)c(=O)n(C)c1=O, C(=C\c1ccco1)/c1ccc2ccccc2n1 is 2.9-fold higher in IC50: 1.45 µM for the first, 4.18 µM for the second. The first is the more potent here.

Compared with O=C(O)C1Nc2c(O)cc(Cl)c([N+](=O)[O-])c2C2C=CCC12 (stereo not drawn), Cc1cc(C)c2c(c1)C1C=CCC1C(c1ccc(S(=O)(=O)N3CCOCC3)cc1)N2 (stereo not drawn) is higher in IC50: < 0.4 µM for the first, 2.05 µM for the second.

C=C(C)C(=O)Nc1cccc(C2=NOC3(C2)C[C@@H](C(N)=O)N(C(=O)/C(C)=C/C)C3)c1 (stereo partly drawn) and COC(=O)[C@@]1(Cc2ccccc2)[C@H]2c3cc(C(=O)N4CCCC4)n(CCSCCO)c3C[C@H]2CN1C(=O)c1ccccc1 cannot be ordered by IC50: > 54 µM for the first, > 54 µM for the second.

First: c1cncc(C2Nc3cccc4cccc(c34)N2)c1
Second: O=C1NC(=S)N/C1=C/c1cccn1-c1ccc([N+](=O)[O-])cc1
The IC50 of the first is lower: 7.27 µM for the first, > 54 µM for the second. The first is the more potent here.

First: Cc1ccc([N+](=O)[O-])cc1N=Nc1c(-c2ccc([N+](=O)[O-])cc2)[nH]n(C(N)=S)c1=O
Second: CCCCCc1nc2c(=O)[nH]c3ccccc3c2o1
The IC50 of the first is lower: < 0.4 µM for the first, > 54 µM for the second. The first is the more potent here.

Compared with CC(/C=C/c1ccco1)=N\NC(=O)c1cc(C)[nH]n1, O=C1CCCCC1C(=O)c1ccccc1 (stereo not drawn) is higher in IC50: 5.64 µM for the first, > 54 µM for the second. The first is the more potent here.

With O=C(O)CC(CCc1ccccc1)OC1OC(CO)C(O)C(O)C1O (stereo not drawn) the IC50 was < 0.4 µM.
